Where a SMILES comes first, the peptide text is derived from it.
Tests used:
[1] = Isothermal titration calorimetry (microcalorimetry) of L with chloride; assay type: binding; settings: acetonitrile, 25.0 °C, measurements repeated three times
Protocol: Microcalorimetric measurements were conducted with an isothermal titration calorimeter Microcal VP-ITC at 25.0 °C. Thermograms were processed using the Microcal OriginPro 7.0 program (OriginLab Corporation, Northampton, MA, USA).
In the calorimetric studies of chloride complexation by L, the enthalpy changes were recorded upon stepwise additions of salt solution into the solution of cyclopeptide ligand (V0 = 1.4 cm^3). The heats measured in the titration experiments were corrected for the heats of titrant dilution obtained by blank experiments. The dependence of successive enthalpy changes on the titrant volume was processed by non-linear least-squares fitting procedure using OriginPro 7.5 program (OriginLab Corporation, Northampton, MA, USA). Measurements were repeated three times.

[2] = Solubility determination of L (saturated solutions, spectrophotometric); assay type: physicochemical
Protocol: Saturated solutions of L in acetonitrile and methanol were prepared by adding an excess amount of the solid substance to the solvent. The obtained mixtures were left in a thermostat at 25 °C for several days in order to equilibrate. The concentrations of saturated solutions were determined at 25.0 °C spectrophotometrically by means of a Varian Cary 5000 spectrophotometer equipped with a thermostatting device. Calibration curves were obtained by measuring the absorbances of solutions of known concentrations.

[3] = Comparison of stability constants in methanol and acetonitrile, chloride; assay type: binding; settings: 25 °C
Protocol: (§1) Fluorimetric titrations were conducted on Varian Cary Eclipse Fluorimeter, UV-Vis spectra were recorded by Agilent Cary 5000 spectrophotometer, and CD spectra were recorded on JASCO J815 spectrophotometer. Fluorimeter and UV-Vis spectrophotometer were connected to thermostating device, whereas CD titrations were performed at room temperature. The excitation wavelength used in all fluorimetric titrations was 260 nm, spectra were recorded at 2 nm interval with 0.4 s integration time, 10 nm excitation, and emission slits were used. In titrations with iodide, the obtained spectra were corrected by the anion concentration dependent solvent emission spectra. […] CD spectra were recorded in the 200–300 nm wavelength range with a 0.2 nm data pitch and scanning speed of 200 nm/min; 2 scans were accumulated for each spectrum. […]
^1H NMR titrations were carried out at 25 °C by means of a Bruker Avance III HD 400 MHz with a solvent signal used as a standard. […] Spectra were recorded at 16 pulses. ^1H NMR spectra were processed and visualized by means of MestReNova 6.1 software (Mestrelab Research, Santiago de Compostela, Spain). Stability constants of the corresponding complexes were determined from the obtained ^1H NMR spectra by using multivariate analysis implemented in HypNMR 4.0 software (Protonic Software, Leeds, UK) included in the Hyperquad program package. […]

[4] = Comparison of stability constants in methanol and acetonitrile, bromide; assay type: binding; settings: 25 °C
Protocol: as §1
^1H NMR titrations were carried out at 25 °C by means of a Bruker Avance III HD 400 MHz with a solvent signal used as a standard. […] Spectra were recorded at 16 pulses. ^1H NMR spectra were processed and visualized by means of MestReNova 6.1 software (Mestrelab Research, Santiago de Compostela, Spain). Stability constants of the corresponding complexes were determined from the obtained ^1H NMR spectra by using multivariate analysis implemented in HypNMR 4.0 software (Protonic Software, Leeds, UK) included in the Hyperquad program package.

[5] = cited from earlier work
Text: The reaction enthalpy (−15 kJ mol^−1) and entropy (65 J mol^−1 K^−1) for L-Cl complex formation are close to the corresponding values for complexation of chloride with cyclopentaleucine (∆rH = −11 kJ mol^−1, ∆rS = 76 J mol^−1 K^−1). Therefore, the inclusion of fluorescent groups to the cyclopeptide sidechain improved the anion detection capability ...

Row | Molecule | Reaction enthalpy for L-Cl complex formation [1] [kcal/mol] | Reaction entropy for L-Cl complex formation [1] [J mol^−1 K^−1] | Transfer Gibbs energy of L (MeCN→MeOH) ([2]; determined from ligand solubilities in acetonitrile and methanol, 25 °C) | Solubility of free L in acetonitrile ([2]; thermodynamic, excess solid in acetonitrile, equilibrated several days at 25 °C, saturated solution measured spectrophotometrically (UV) at 25.0 °C with calibration curve) | Solubility of free L in methanol ([2]; thermodynamic, excess solid in methanol, equilibrated several days at 25 °C, saturated solution measured spectrophotometrically (UV) at 25.0 °C with calibration curve) | Decrease in stability constant in methanol compared to acetonitrile, in the log K value [3] | Decrease in stability constant in methanol compared to acetonitrile, in the log K value [4] | ∆rH for complexation of chloride with cyclopentaleucine [5] [kcal/mol] | ∆rS for complexation of chloride with cyclopentaleucine [5] [J mol^−1 K^−1]
1 | O=C1N[C@@H](Cc2ccccc2)C(=O)N[C@@H](Cc2ccccc2)C(=O)N[C@@H](Cc2ccccc2)C(=O)N[C@@H](Cc2ccccc2)C(=O)N[C@H]1Cc1ccccc1 [L, cyclopentaphenylalanine] (cyclo(FFFFF)) | -3.59 | 65 | negligible | (2.72 ± 0.02) × 10^−3 mol dm^−3 | (2.81 ± 0.03) × 10^−3 mol dm^−3 | about 4.5 | ~3.5 |  | 
2 | cyclopentaleucine |  |  |  |  |  |  |  | -2.63 | 76
